# From patent US20110028391A1, “Use of GLP-1 Peptides” (Novo Nordisk A/S, priority 1996, published 2011)
# Where two headings read alike, the source gives them in different places. No end group written: not given here.
# Assays:
# rats = details: cited from earlier work
# Mice [1] = test: Appetite suppression in mice: 20% sucrose consumption, tested immediately after ip injection (Example 2); type: in vivo; details: 85 micrograms (equivalent to 3.4 mg/kg) in sterile saline, 10 minute test immediately after injection, versus vehicle control, p-value 0.002
# Experimental: Mice were deprived of their normal food for two days and given free access to a 20% sucrose solution on the first day of food deprivation. After the two day food deprivation period, the mice were injected intraperitoneally with 0.5 ml of a solution containing the test substance. Immediately after injection, individual mice were placed in one of eight 15 cm square test boxes with a stainless steel grid floor and a glass drinking tube which projected into the box. […] Consumption of the sucrose solution was measured over a 10 minute period by electronically recording the total amount of contact with the sucrose solution during the test session. The degree of appetite suppression produced by a given test substance was determined by statistical comparison of the mean duration of sucrose consumption by control (vehicle treated) mice with that of mice treated with a test substance. The degree of appetite suppression in a treated group of mice was expressed as percent difference between the test and control group's response duration means. […]
# Mice [2] = test: Appetite suppression in mice: Complan formula milk consumption after subcutaneous injection (Example 4); type: in vivo; details: 30 min after injection, p<0.001
# Healthy human volunteers = test: Double-blind crossover trial of iv infusion: food intake, satiety, hunger, fullness and appetite in normal human subjects; type: in vivo; details: iv infusion 50 pmol/(kg·h)
# From the text: Healthy human volunteers (20 subjects) were in a double-blind crossover trial given an iv infusion of 50 pmol/(kg·h) of GLP-1(7-36)amide or saline on separate, but otherwise identical experimental days. The infusion was started at 9.00 and lasted until 15.00. At 9.45 the subjects received a fixed amount of breakfast and at 14.15 they had lunch of an identical composition but ad libitum. The subjects rated their feeling of satiety, hunger, fullness and appetite on a visual analogue scale every half hour.
# [3] = 9.00 to 15.00, 20 subjects, rated every half hour, p=0.007
substance,measurement,setting,value
"GLP-1(1-36)amide (HDEFERHAEGTFTSDVSSYLEGQAAKEFIAWLVKGR-NH2; UniProt P01275 92-127, looked up, fragment) [GLP-1 fragment 1-36, C-terminal amide]",Effect on food intake,"rats; Tang-Christensen et al. 1996, route not stated",no effect
GLP-1(7-36)amide,Suppression of sucrose consumption,Mice [1],60%
same,Suppression of feeding (Complan consumption),Mice [2]; 1 mg/kg,45%
same,"Maximum effect, suppression of feeding (Complan consumption)",Mice [2]; 20 mg/kg (highest dose tested),60%
GLP-1: proglucagon fragment 72-108 per b6; as named in the cited rat studies (b7); in b63 it is shorthand for GLP-1(7-36)amide,Satiety (visual analogue scale) versus saline,"Healthy human volunteers; 9.00 to 15.00, 20 subjects, rated every half hour, p=0.006",GLP-1>Saline
same,Appetite (visual analogue scale) versus saline,Healthy human volunteers; [3],GLP-1<Saline
same,Hunger (visual analogue scale) versus saline,Healthy human volunteers; [3],GLP-1<Saline
same,Fullness (visual analogue scale) versus saline,"Healthy human volunteers; 9.00 to 15.00, 20 subjects, rated every half hour, p=0.010",GLP-1>Saline
same,Energy intake,"Healthy human volunteers; ad libitum lunch, saline 4.3 MJ, p-value 0.009",3.9 mJ
same,Effect on food intake,"rats; administered intracerebroventricularly, Tang-Christensen et al. 1996",profound effect
same,Effect on food intake,"rats; administered intracerebroventricularly, Turton et al. 1996",profound effect
same,Effect on food intake,"rats; peripheral administration, Turton et al. 1996",inactive
same,Effect on food intake,"rats; peripherally administered, Tang-Christensen et al. 1996",no significant effect
